Experimental data from patent US8753875B2, “Compositions and means for diagnosing microbial infections” (priority 2007, dated 2014).
Like-named read-outs stand apart in the source and are kept apart here.

Assays:
S. agalactiae = test system: S. agalactiae; design: key: Susceptible = S; Resistant = R; settings: cited from earlier work
Citrobacter = test system: Citrobacter; design: key: Susceptible = S; Resistant = R; settings: cited from earlier work
Pseud. Aeruginosa = test system: Pseud. Aeruginosa; design: key: Susceptible = S; Resistant = R; settings: cited from earlier work
E. coli [1] = settings: cited from earlier work
Morganella = test system: Morganella; design: key: Susceptible = S; Resistant = R; settings: cited from earlier work
Enterobacter = test system: Enterobacter; design: key: Susceptible = S; Resistant = R; settings: cited from earlier work
P. mirabilis = test system: P. mirabilis; design: key: Susceptible = S; Resistant = R; settings: cited from earlier work
E. coli [2] = assay: Growth of E. coli in antibiotic compartments of the platform (FIG. 3); type: cell-based; settings: illustrated E. coli of FIG. 3
Excerpt: The photos show growth of E. coli at different quantities of bacteria/ml urine.

Candida sp. = test system: Candida sp.; design: key: Susceptible = S; Resistant = R; settings: cited from earlier work
Enterobacter spp = assay: Growth on Flexicult plate, susceptibility/resistance to the five antibiotics (FIG. 4, Table A); type: cell-based
Excerpt: (§1) The kit was developed for urine culture in the primary health care setting. It is designed preferably as a nine cm Petri dish divided into six compartments: One larger compartment for quantitative analysis and five smaller compartments for susceptibility testing. The agar in each small compartment contains one of five antimicrobials (for Denmark and Scandinavia preferably: trimethoprim, sulfamethizole, ampicillin, nitrofurantoin and mecillinam (amdinocillin)) at a concentration adjusted to the breakpoint, such that growth in these compartments indicates resistance, and no growth indicates susceptibility. The Petri dish preferably has higher sides, approximately 2.48 cm, than the usual dish, i.e. ca. 1.48 cm. This allows a larger amount, maximum 100 ml, of urine to be poured onto the dish for inoculation.
(§2) Reading the susceptibility of the bacterial growth: Each bacterium (if more than one) is read individually: The growth in each of the antibiotic fields is compared with the growth on the control agar. […] If there is no growth (or substantially less than the control agar), then the bacterium is considered to be susceptible to the antibiotic. […] When nitrofurantoin and mecillinam are used as antibiotics, a few single colonies may be seen of the same type as the bacterium on the control agar: These are not considered to be resistant mutants but “persisters,” i.e. if retested they will appear susceptible. This is commonly seen also by disc diffusion especially for mecillinam.

Morganella spp. = assay: as above; type: cell-based
Excerpt: as §1, §2

E. faecium [3] = assay: as above; type: cell-based
Excerpt: as §1, §2

P. aureginosa = assay: as above; type: cell-based
Excerpt: as §1, §2

E. faecalis [4] = assay: as above; type: cell-based
Excerpt: as §1, §2

Candida spp. = assay: as above; type: cell-based
Excerpt: as §1, §2

P. vulgaris [5] = assay: as above; type: cell-based
Excerpt: as §1, §2

Citrobacter spp. = assay: as above; type: cell-based
Excerpt: as §1, §2

S. saprophyticus [6] = assay: as above; type: cell-based
Excerpt: as §1, §2

E. coli [7] = assay: as above; type: cell-based
Excerpt: as §1, §2

Proteus mirabilis = assay: as above; type: cell-based
Excerpt: as §1, §2

Klebsiella spp. = assay: as above; type: cell-based
Excerpt: as §1, §2

E. faecalis [8] = test system: E. faecalis; design: key: Susceptible = S; Resistant = R; settings: cited from earlier work
P. vulgaris [9] = test system: P. vulgaris; design: key: Susceptible = S; Resistant = R; settings: cited from earlier work
S. saprophyticus [10] = test system: S. saprophyticus; design: key: Susceptible = S; Resistant = R; settings: cited from earlier work
Klebsiella = test system: Klebsiella; design: key: Susceptible = S; Resistant = R; settings: cited from earlier work
[11] = Stability of the antimicrobial in the semi-solid media; type: physicochemical; settings: pH-value of the semi-solid media adjusted to 6.0
Excerpt: Stability of the antimicrobial in the semi-solid media may depend on the pH-value. The pH-value should preferably not exceed certain limits as this will influence the antimicrobial effect. The stability of Ampicillin and Mecillinam has been improved by adjusting the pH-value of the semi-solid media to 6.0.

E. coli [12] = test system: E. coli; design: key: Susceptible = S; Resistant = R; settings: cited from earlier work
E. faecium [13] = test system: E. faecium; design: key: Susceptible = S; Resistant = R; settings: cited from earlier work

In the case of `CC1(C)S[C@@H]2[C@H](/N=C/N3CCCCCC3)C(=O)N2[C@H]1C(=O)O` [Mecillinam, 6-Amidinopenicillanic acid derivatives; amdinocillin: 46-[[(hexahydro-1H-azepin-1-yl)methylene]amino]-3,3-dimethyl-7-oxo-, (2S,5R,6R)--Thia-1-azabicyclo[3.2.0]heptane-2-carboxylic acid], the Normal susceptibility/resistance (S. agalactiae) is given as “R”, the Normal susceptibility/resistance (Citrobacter) is given as “S” and the Normal susceptibility/resistance (Pseud. Aeruginosa) is given as “R”. For the same compound, the “Antimicrobial resistance of E. coli (resistance in percent)” value (E. coli [1]; Austria, n 126) was 1.6%, the “Antimicrobial resistance of E. coli (resistance in percent)” value (E. coli [1]; Belgium, n 137) was 1.5% and the “Antimicrobial resistance of E. coli (resistance in percent)” value (E. coli [1]; Canada, n 166) was 1.2%. For the same compound, the “Antimicrobial resistance of E. coli (resistance in percent)” value (E. coli [1]; Denmark, n 85) was 1.2%, the “Antimicrobial resistance of E. coli (resistance in percent)” value (E. coli [1]; Finland, n 182) was 0.5% and the “Antimicrobial resistance of E. coli (resistance in percent)” value (E. coli [1]; France, n 199) was 1.5%. For the same compound, the “Antimicrobial resistance of E. coli (resistance in percent)” value (E. coli [1]; Germany, n 138) was 2.2%, the “Antimicrobial resistance of E. coli (resistance in percent)” value (E. coli [1]; Greece, n 132) was 0.8% and the “Antimicrobial resistance of E. coli (resistance in percent)” value (E. coli [1]; Ireland, n 154) was 0.6%. For the same compound, the “Antimicrobial resistance of E. coli (resistance in percent)” value (E. coli [1]; Luxembourg, n 24) was 0%, the “Antimicrobial resistance of E. coli (resistance in percent)” value (E. coli [1]; Norway, n 168) was 0% and the “Antimicrobial resistance of E. coli (resistance in percent)” value (E. coli [1]; Portugal, n 86) was 2.3%. The “Antimicrobial resistance of E. coli (resistance in percent)” value (E. coli [1]; Spain, n 191) was 1.0%, the “Antimicrobial resistance of E. coli (resistance in percent)” value (E. coli [1]; Sweden, n 193) was 1.6% and the “Antimicrobial resistance of E. coli (resistance in percent)” value (E. coli [1]; Switzerland, n 122) was 0%. The “Antimicrobial resistance of E. coli (resistance in percent)” value (E. coli [1]; The Netherlands, n 195) was 1.5%, the “Antimicrobial resistance of E. coli (resistance in percent)” value (E. coli [1]; Total, n 2478) was 1.2% and the “Antimicrobial resistance of E. coli (resistance in percent)” value (E. coli [1]; United Kingdom, n 180) was 1.7%. For the same compound, the Normal susceptibility/resistance (Morganella) was “R”, the Normal susceptibility/resistance (Enterobacter) was “S” and the Normal susceptibility/resistance (P. mirabilis) was “S/R”. The “resistant or susceptible (growth in antibiotic compartment)” value (shortened to “resistant or susceptible”) (E. coli [2]) was “susceptible”, the Normal susceptibility/resistance (Candida sp.) was “R” and the “Susceptibility = S or Resistance = R” value (Enterobacter spp) was “R”. The “Susceptibility = S or Resistance = R” value (Morganella spp.) was “R”, the “Susceptibility = S or Resistance = R” value (E. faecium [3]) was “S” and the “Susceptibility = S or Resistance = R” value (P. aureginosa) was “R”. The “Susceptibility = S or Resistance = R” value (E. faecalis [4]) was “S”, the “Susceptibility = S or Resistance = R” value (Candida spp.) was “R” and the “Susceptibility = S or Resistance = R” value (P. vulgaris [5]) was “R”. For the same compound, the “Susceptibility = S or Resistance = R” value (Citrobacter spp.) was “S”, the “Susceptibility = S or Resistance = R” value (S. saprophyticus [6]) was “S” and the “Susceptibility = S or Resistance = R” value (E. coli [7]) was “S”. For the same compound, the “Susceptibility = S or Resistance = R” value (Proteus mirabilis) was “R”, the “Susceptibility = S or Resistance = R” value (Klebsiella spp.) was “S” and the Normal susceptibility/resistance (E. faecalis [8]) was “R”. For the same compound, the Normal susceptibility/resistance (P. vulgaris [9]) was “R”, the Normal susceptibility/resistance (S. saprophyticus [10]) was “S/R” and the Normal susceptibility/resistance (Klebsiella) was “S”. For the same compound, the “stability in the semi-solid media” value [11] was “improved”, the Normal susceptibility/resistance (E. coli [12]) was “S” and the Normal susceptibility/resistance (E. faecium [13]) was “R”.

For `Cc1nnc(NS(=O)(=O)c2ccc(N)cc2)s1` [Sulfamethizole], the “resistant or susceptible” value (E. coli [2]) was “resistant”, the “Susceptibility = S or Resistance = R” value (Enterobacter spp) was “R” and the “Susceptibility = S or Resistance = R” value (Morganella spp.) was “S”. The “Susceptibility = S or Resistance = R” value (E. faecium [3]) was “R”, the “Susceptibility = S or Resistance = R” value (P. aureginosa) was “R” and the “Susceptibility = S or Resistance = R” value (E. faecalis [4]) was “R”. For the same compound, the “Susceptibility = S or Resistance = R” value (Candida spp.) was “R”, the “Susceptibility = S or Resistance = R” value (P. vulgaris [5]) was “S” and the “Susceptibility = S or Resistance = R” value (Citrobacter spp.) was “S”. For the same compound, the “Susceptibility = S or Resistance = R” value (S. saprophyticus [6]) was “S”, the “Susceptibility = S or Resistance = R” value (E. coli [7]) was “R” and the “Susceptibility = S or Resistance = R” value (Proteus mirabilis) was “S”. The “Susceptibility = S or Resistance = R” value (Klebsiella spp.) was “S”.

For `COc1cc(Cc2cnc(N)nc2N)cc(OC)c1OC` [Trimethoprim, S-(3,4,5-trimethoxybenzyl)pyrimidine-2,4-diamine], the Normal susceptibility/resistance (S. agalactiae) is given as “S”, the Normal susceptibility/resistance (Citrobacter) is given as “S” and the Normal susceptibility/resistance (Pseud. Aeruginosa) is given as “R”. The “Antimicrobial resistance of E. coli (resistance in percent)” value (E. coli [1]; Austria, n 126) was 9.5%, the “Antimicrobial resistance of E. coli (resistance in percent)” value (E. coli [1]; Belgium, n 137) was 13.9% and the “Antimicrobial resistance of E. coli (resistance in percent)” value (E. coli [1]; Canada, n 166) was 10.8%. For the same compound, the “Antimicrobial resistance of E. coli (resistance in percent)” value (E. coli [1]; Denmark, n 85) was 10.6%, the “Antimicrobial resistance of E. coli (resistance in percent)” value (E. coli [1]; Finland, n 182) was 5.5% and the “Antimicrobial resistance of E. coli (resistance in percent)” value (E. coli [1]; France, n 199) was 15.6%. For the same compound, the “Antimicrobial resistance of E. coli (resistance in percent)” value (E. coli [1]; Germany, n 138) was 22.5%, the “Antimicrobial resistance of E. coli (resistance in percent)” value (E. coli [1]; Greece, n 132) was 13.6% and the “Antimicrobial resistance of E. coli (resistance in percent)” value (E. coli [1]; Ireland, n 154) was 22.1%. For the same compound, the “Antimicrobial resistance of E. coli (resistance in percent)” value (E. coli [1]; Luxembourg, n 24) was 16.7%, the “Antimicrobial resistance of E. coli (resistance in percent)” value (E. coli [1]; Norway, n 168) was 13.1% and the “Antimicrobial resistance of E. coli (resistance in percent)” value (E. coli [1]; Portugal, n 86) was 26.7%. For the same compound, the “Antimicrobial resistance of E. coli (resistance in percent)” value (E. coli [1]; Spain, n 191) was 25.1%, the “Antimicrobial resistance of E. coli (resistance in percent)” value (E. coli [1]; Sweden, n 193) was 8.8% and the “Antimicrobial resistance of E. coli (resistance in percent)” value (E. coli [1]; Switzerland, n 122) was 18.9%. For the same compound, the “Antimicrobial resistance of E. coli (resistance in percent)” value (E. coli [1]; The Netherlands, n 195) was 12.3%, the “Antimicrobial resistance of E. coli (resistance in percent)” value (E. coli [1]; Total, n 2478) was 14.8% and the “Antimicrobial resistance of E. coli (resistance in percent)” value (E. coli [1]; United Kingdom, n 180) was 13.3%. For the same compound, the Normal susceptibility/resistance (Morganella) was “S”, the Normal susceptibility/resistance (Enterobacter) was “S” and the Normal susceptibility/resistance (P. mirabilis) was “S”. The “resistant or susceptible” value (E. coli [2]) was “susceptible”, the Normal susceptibility/resistance (Candida sp.) was “R” and the “Susceptibility = S or Resistance = R” value (Enterobacter spp) was “S”. For the same compound, the “Susceptibility = S or Resistance = R” value (Morganella spp.) was “S”, the “Susceptibility = S or Resistance = R” value (E. faecium [3]) was “S” and the “Susceptibility = S or Resistance = R” value (P. aureginosa) was “R”. The “Susceptibility = S or Resistance = R” value (E. faecalis [4]) was “S”, the “Susceptibility = S or Resistance = R” value (Candida spp.) was “R” and the “Susceptibility = S or Resistance = R” value (P. vulgaris [5]) was “S”. For the same compound, the “Susceptibility = S or Resistance = R” value (Citrobacter spp.) was “S”, the “Susceptibility = S or Resistance = R” value (S. saprophyticus [6]) was “S” and the “Susceptibility = S or Resistance = R” value (E. coli [7]) was “S”. For the same compound, the “Susceptibility = S or Resistance = R” value (Proteus mirabilis) was “S”, the “Susceptibility = S or Resistance = R” value (Klebsiella spp.) was “S” and the Normal susceptibility/resistance (E. faecalis [8]) was “S”. The Normal susceptibility/resistance (P. vulgaris [9]) was “S”, the Normal susceptibility/resistance (S. saprophyticus [10]) was “S” and the Normal susceptibility/resistance (Klebsiella) was “S”. The Normal susceptibility/resistance (E. coli [12]) was “S” and the Normal susceptibility/resistance (E. faecium [13]) was “S”.
